Measurements as given in ChEMBL document CHEMBL1201862, “PubChem BioAssay data set” (2004).
Calls of active or inactive are those of the source.

What was measured:
[1] = biological target: Paired box protein Pax-8 (Homo sapiens, UniProt Q06710); assay: inhibitors of PAX8-driven TPO luciferase reporter, dose response, RMG-I cells, cherry-pick (AID 687027); type: functional, cell-based;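 note: luciferase reporter driven by Pax8 target thyroperoxidase promoter measured by SteadyGlo luminescence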
[2] = non-specific cell cytotoxicity, dose response, cytotoxicity control for PAX8 inhibitor project, plate reader, dry powder samples (AID 743021); type: functional, cell-based
[3] = biological target: T1, Disintegrin and metalloproteinase domain-containing protein 17 (Homo sapiens, UniProt P78536); assay: exosite inhibitors of ADAM17, dose response, biochemical (AID 743260)
[4] = biological target: T2, Heat shock factor protein 1 (Mus musculus, UniProt P38532); assay: HSF1 potentiators in luciferase reporter cells, confirmation, cell-based, NIH3T3, luminescence, dose retest (AID 435004); type: functional;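 note: stress induced by proteasome inhibitor MG132 added 30 min after compound; luciferase reporter driven by HSF1 response element in NIH3T3 cells; actives raise luminescence as potentiators of the MG132 stress response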
T2 sequence (P38532 whole entry): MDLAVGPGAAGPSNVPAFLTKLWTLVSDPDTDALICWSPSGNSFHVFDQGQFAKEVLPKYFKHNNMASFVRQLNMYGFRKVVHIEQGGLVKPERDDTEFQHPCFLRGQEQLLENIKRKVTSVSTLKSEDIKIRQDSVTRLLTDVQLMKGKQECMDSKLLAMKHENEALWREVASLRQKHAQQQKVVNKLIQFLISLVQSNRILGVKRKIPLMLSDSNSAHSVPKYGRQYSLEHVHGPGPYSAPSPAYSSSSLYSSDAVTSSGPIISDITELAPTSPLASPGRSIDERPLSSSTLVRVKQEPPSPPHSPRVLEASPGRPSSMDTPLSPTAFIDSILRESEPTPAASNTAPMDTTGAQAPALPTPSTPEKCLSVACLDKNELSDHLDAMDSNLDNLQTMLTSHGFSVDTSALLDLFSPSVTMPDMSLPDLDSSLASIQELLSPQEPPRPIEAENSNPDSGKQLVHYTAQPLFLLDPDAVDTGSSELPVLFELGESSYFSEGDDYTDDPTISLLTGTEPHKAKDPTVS

[5] = biological target: T3, Aminopeptidase N (Plasmodium falciparum FcB1/Columbia, UniProt O96935); assay: P. falciparum M1AAP inhibitors, biochemical, fluorogenic H-Leu-NHMec substrate, 1536-well (AID 1445); parameters: species or system Plasmodium falciparum 3D7, 3D7
T3 sequence (O96935 whole entry): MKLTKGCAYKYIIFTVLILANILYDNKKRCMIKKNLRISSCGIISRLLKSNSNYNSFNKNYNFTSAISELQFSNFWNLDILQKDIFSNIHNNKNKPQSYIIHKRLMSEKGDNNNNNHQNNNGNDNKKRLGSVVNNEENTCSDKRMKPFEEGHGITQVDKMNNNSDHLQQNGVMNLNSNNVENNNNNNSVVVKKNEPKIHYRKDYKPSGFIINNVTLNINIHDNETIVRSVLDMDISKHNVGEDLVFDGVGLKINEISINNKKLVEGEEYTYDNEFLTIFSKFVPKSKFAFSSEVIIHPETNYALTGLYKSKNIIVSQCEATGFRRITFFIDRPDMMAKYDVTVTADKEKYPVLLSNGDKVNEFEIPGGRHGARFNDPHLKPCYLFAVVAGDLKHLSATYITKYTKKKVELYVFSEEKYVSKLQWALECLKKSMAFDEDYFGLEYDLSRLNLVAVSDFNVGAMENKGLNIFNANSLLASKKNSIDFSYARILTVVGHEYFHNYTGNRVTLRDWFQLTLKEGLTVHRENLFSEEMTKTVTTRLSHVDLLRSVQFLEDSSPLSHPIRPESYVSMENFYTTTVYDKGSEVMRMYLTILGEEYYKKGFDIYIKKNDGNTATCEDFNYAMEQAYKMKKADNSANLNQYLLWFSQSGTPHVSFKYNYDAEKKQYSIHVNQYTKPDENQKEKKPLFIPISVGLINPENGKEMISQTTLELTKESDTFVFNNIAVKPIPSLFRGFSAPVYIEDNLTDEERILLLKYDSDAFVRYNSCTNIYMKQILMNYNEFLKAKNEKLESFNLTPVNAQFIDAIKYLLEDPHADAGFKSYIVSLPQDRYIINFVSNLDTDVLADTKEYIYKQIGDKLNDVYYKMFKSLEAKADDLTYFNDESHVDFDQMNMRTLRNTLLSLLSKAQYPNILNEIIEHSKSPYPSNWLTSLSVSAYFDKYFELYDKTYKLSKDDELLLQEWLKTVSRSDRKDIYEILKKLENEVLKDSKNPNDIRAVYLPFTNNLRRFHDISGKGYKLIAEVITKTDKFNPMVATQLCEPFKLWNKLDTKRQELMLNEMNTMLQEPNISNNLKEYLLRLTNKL

[6] = biological target: Kallikrein-7 (Homo sapiens, UniProt P49862); assay: Fluorescence Intensity-based biochemical primary high throughput dose response assay to identify activators of kallikrein-7 (K7) zymogen.
[7] = HEK293T cytotoxicity, dose response, cytotoxicity control for miR-122 modulator project, cell-based, inhibitor set, cherry-pick, set 2 (AID 720697); type: functional
[8] = biological target: T1, Disintegrin and metalloproteinase domain-containing protein 17; assay: ADAM17 protease inhibitors, dose response, counter-screen for ADAM10 exosite inhibitor project, biochemical, quenched FRET substrate (AID 743253)
[9] = T. cruzi growth inhibition in host cells, dose response, cell-based, plate reader, dry powder, set 2 (AID 652275); type: functional
[10] = IGROV1 ovarian cancer cell cytotoxicity, dose response, PAX8 inhibitor project, plate reader, dry powder samples (AID 743043); type: functional, cell-based; settings: IGROV-1
[11] = NIH:OVCAR-3 ovarian cancer cell cytotoxicity, dose response, PAX8 inhibitor project, plate reader, dry powder samples (AID 743044); type: functional, cell-based
[12] = cytotoxicity in OVCAR8 ovarian cancer cells, dose response, PAX8 project, cell-based, plate reader, dry powder samples (AID 743197); type: functional; settings: OVCAR-8
[13] = intracellular Trypanosoma cruzi inhibitors in host cells – cell-based, plate reader, cherry-pick samples, set 3, dose response (AID 651818); type: functional;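 note: compounds incubated with infected cells for about four days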
[14] = biological target: T4, Cytochrome P450 1A2 (Homo sapiens, UniProt P05177);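 note: PubChem cytochrome P450 panel assay, CYP1A2 panel member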
T4 sequence (P05177 whole entry): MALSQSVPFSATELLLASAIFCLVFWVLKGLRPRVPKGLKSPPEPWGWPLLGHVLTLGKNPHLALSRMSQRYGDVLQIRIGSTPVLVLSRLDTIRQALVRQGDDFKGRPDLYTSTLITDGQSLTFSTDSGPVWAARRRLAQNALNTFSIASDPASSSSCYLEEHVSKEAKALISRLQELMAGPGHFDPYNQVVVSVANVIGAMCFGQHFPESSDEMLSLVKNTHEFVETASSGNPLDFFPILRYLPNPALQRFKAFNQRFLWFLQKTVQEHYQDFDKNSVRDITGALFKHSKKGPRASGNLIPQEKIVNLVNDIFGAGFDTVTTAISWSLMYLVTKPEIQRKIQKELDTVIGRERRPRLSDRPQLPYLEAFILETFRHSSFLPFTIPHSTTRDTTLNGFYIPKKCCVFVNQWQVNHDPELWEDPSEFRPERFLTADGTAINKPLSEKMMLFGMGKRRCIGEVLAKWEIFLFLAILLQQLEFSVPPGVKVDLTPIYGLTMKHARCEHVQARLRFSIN

Paired box protein Pax-8, sequence (Q06710 whole entry): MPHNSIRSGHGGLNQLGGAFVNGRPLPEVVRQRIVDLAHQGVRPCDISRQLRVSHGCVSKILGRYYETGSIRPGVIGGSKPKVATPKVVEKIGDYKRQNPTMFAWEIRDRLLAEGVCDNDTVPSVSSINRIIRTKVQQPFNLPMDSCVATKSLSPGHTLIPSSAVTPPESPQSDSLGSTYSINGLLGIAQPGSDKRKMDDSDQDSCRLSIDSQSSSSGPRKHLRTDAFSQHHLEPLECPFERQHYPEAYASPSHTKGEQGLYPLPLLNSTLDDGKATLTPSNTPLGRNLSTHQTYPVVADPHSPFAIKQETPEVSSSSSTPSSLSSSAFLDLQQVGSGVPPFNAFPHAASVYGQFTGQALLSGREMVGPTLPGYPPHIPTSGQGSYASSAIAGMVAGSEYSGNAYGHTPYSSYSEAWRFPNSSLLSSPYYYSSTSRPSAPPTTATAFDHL
T1 sequence (P78536 whole entry, the tested form may be a part): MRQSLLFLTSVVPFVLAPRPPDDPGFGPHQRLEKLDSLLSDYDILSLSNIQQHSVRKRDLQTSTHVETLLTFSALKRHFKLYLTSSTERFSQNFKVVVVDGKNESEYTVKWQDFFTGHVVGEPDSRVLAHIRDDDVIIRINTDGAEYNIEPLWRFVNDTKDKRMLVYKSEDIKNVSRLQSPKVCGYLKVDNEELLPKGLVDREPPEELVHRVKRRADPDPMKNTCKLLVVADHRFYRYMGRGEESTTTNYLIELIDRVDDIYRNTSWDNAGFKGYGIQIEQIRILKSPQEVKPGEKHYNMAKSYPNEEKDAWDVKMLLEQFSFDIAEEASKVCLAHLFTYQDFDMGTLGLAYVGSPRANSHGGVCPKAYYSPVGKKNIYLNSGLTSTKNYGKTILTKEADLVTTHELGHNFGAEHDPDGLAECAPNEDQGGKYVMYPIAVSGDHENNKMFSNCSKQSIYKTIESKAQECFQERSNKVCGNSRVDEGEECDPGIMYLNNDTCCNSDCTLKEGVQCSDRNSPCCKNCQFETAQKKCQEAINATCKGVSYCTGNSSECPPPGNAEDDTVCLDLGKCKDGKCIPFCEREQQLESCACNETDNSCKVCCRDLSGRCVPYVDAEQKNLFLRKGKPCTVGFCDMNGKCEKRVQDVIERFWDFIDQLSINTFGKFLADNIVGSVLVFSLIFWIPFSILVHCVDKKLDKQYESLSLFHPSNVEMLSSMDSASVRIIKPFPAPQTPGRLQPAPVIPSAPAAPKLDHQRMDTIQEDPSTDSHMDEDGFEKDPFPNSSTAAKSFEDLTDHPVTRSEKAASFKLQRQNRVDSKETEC
Kallikrein-7, sequence (P49862 whole entry): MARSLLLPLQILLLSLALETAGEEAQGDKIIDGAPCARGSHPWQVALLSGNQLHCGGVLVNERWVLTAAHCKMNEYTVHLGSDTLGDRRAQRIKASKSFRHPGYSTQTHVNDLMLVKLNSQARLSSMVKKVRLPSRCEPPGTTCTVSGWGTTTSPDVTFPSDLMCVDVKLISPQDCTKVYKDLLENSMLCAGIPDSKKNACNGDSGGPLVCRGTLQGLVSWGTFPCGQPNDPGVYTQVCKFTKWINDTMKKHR

Which results are given for `C[C@@H]1CN([C@@H](C)CO)C(=O)Cc2cc(NC(=O)Cc3ccccc3)ccc2O[C@H]1CN(C)Cc1ccc(-c2ccccc2)cc1`?
AC50 [1]: 9.31 µM (active); AC50 [2]: 45.7 µM (active)

For `COc1cc(-c2nc(-c3ccccc3)c(-c3ccc4c(c3)-c3ccccc3S4(=O)=O)[nH]2)cc(OC)c1O`, which IC50 [3] is on record?
Its IC50 is > 69.5 µM (inactive).

What about the EC50 [4] of the same compound?
Its EC50 is 101 µM (active).

Which results are given for `CCN(CC)CCCNc1oc(/C=C/c2ccccc2)nc1C#N`?
IC50 [5]: 61 µM (active); EC50 [6]: > 69.5 µM (inactive)

For `CC(=O)Nc1ccc(-c2cc(-c3ccc(NC(C)=O)cc3)nc(-c3ccc(NC(C)=O)cc3)n2)cc1`, which AC50 [7] is on record?
The AC50 was 8.27 µM (active).

With `CC(C)C[C@H](NC(=O)c1nc[nH]c1C(=O)Nc1ccc(CNC(=O)OC(C)(C)C)cc1)C(=O)OC(C)(C)C` as the compound, how does the IC50 [8] read?
Its IC50 is > 69.5 µM (inactive).

Which AC50 [9] does the source give for `C[C@H]1CN([C@@H](C)CO)C(=O)c2cccc(NC(=O)c3ccncc3)c2O[C@@H]1CN(C)Cc1cc(Cl)cc(Cl)c1` here?
The AC50 was 0.0105 µM (active).

For `C[C@@H]1CCCCO[C@H](CN(C)Cc2ccc(Cl)c(Cl)c2)[C@@H](C)CN([C@@H](C)CO)C(=O)c2cc(NC(=O)Cc3ccccc3)ccc2O1`, which AC50 [1] is on record?
The AC50 was 11.2 µM (active).

And the AC50 [10]?
The AC50 was 50.5 µM (active).

And the AC50 [11]?
Its AC50 is 33.4 µM (active).

What about the AC50 [12] of the same compound?
The AC50 was > 70 µM (inactive).

With `C[C@@H]1CN([C@@H](C)CO)C(=O)c2cc(NC(=O)Nc3ccc(C(F)(F)F)cc3)ccc2O[C@H]1CN(C)C(=O)Nc1ccc(C(F)(F)F)cc1` as the compound, how does the AC50 [13] read?
The AC50 was 3.41 µM (active).

And the AC50 [1]?
The AC50 was 5.97 µM (active).

And the AC50 [10]?
The AC50 was 52.1 µM (active).

What about the AC50 [11] of the same compound?
Its AC50 is 42.1 µM (active).

And the AC50 [12]?
Its AC50 is 61.2 µM (active).

For `CCC(C)C(NS(=O)(=O)c1ccc(C)cc1)C(=O)Oc1ccc2c3c(c(=O)oc2c1)CCC3` (stereo not given), which AC50 [14] is on record?
Its AC50 is 11.2 µM (inconclusive).

And the EC50 [6]?
The EC50 was > 69.5 µM (inactive).
